Results reported in patent US11304419B2, “Methods to induce heat stress tolerance in plants” (Valent BioSciences LLC, priority 2020, dated 2022).

Columns and labels:
Format in all cases: in vivo
Apogee wheat [1] = assay: Heat stress tolerance in wheat following ACC application during flowering; conditions: heat stress 36/30° C. 7 days, n = 8
Procedure: 24 pots of Apogee wheat were grown in a greenhouse under 3 consecutive growing conditions. First, the wheat was planted in ProMix® growth media and grown for about 6 weeks in a growth cabinet at 24/18° C. day/night temperature under a 16/8 hour light/dark photoperiod. Plants were at Feekes stage 10.4-10.5 (flowering stage) following the first set of growth conditions. Next, spray applications of 0, 30 or 100 ppm ACC (n=8) were made using a tank sprayer. Next, 2 days following treatment, the plants were transferred to a growth chamber at 36/30° C. day/night temperature under a 16/8-hour light/dark photoperiod for 7 days. These conditions constitute significant heat stress. Finally, the plants were then returned to growth chamber at 24/18° C. day/night temperature under a 16/8-hour light/dark photoperiod for about 5 additional weeks. Plants were then destructively harvested and measured for total spike number, spike weight, grain weight, yield per spike, A spike number and harvest index. A spike number is calculated by subtracting the number of reproductive tillers at treatment from the number of reproductive tillers at harvest. An increase in reproductive tillers is indicative of an increase in reproductive success. Harvest index is calculated by dividing pounds of grain by the total pounds of above ground biomass.

Apogee wheat [2] = assay: Heat stress tolerance in wheat following ACC application at Feekes stage 5 (Example 2); conditions: heat stress 34/28° C. 4 days
Procedure: Apogee wheat was seeded into ProMix BX (Premier Horticulture) and grown in a growth cabinet under the following conditions: 24/18° C. day/night temperature under a 16/8 hour light/dark photoperiod. Plants were evaluated at Feekes stage 5 following the first set of growth conditions on Nov. 15, 2019. Next, spray applications of 0, 0 or 100 ppm ACC (n=8) were made using a track sprayer. Next, 2 days following treatment, one set of control plants (“treatment control”) and the 100 ppm ACC plants were transferred to a second growth cabinet at 34/28° C. day/night temperature under a 16/8-hour light/dark photoperiod for 4 days. These conditions constitute significant heat stress. The other set of control plants (“stress control”) remained in the first growth cabinet. Finally, the plants were then returned to the first growth cabinet for about 14 days where plants reached Feekes stage 10.1 (head emergence). Plants were then destructively harvested and measured for total spike number, fresh weight, total reproductive tiller number, percent reproductive tillers, A canopy density and total dry weight. Percent reproductive tillers is calculated by dividing the number of reproductive tillers by the total number of spikes at harvest. A canopy density is calculated by subtracting the canopy density at treatment from the canopy density at harvest.

Butterhead lettuce = assay: Heat stress tolerance in lettuce following ACC application at rosette stage; conditions: heat stress 34/30° C. nine days; for Canopy Density / Fresh Weight / Δ Canopy Density: n = 5; for Canopy Density, percent increase over stress control / Fresh Weight, percent increase over stress control / Δ Canopy Density, percent increase over stress control: vs stress control; for Canopy Density, percent increase over treatment control / Fresh Weight, percent increase over treatment control / Δ Canopy Density, percent increase over treatment control: vs treatment control
Procedure: Butterhead lettuce was seeded into ProMix BX (Premier Horticulture) and grown in a greenhouse. Three weeks post-sowing the lettuce was transferred to a growth cabinet under the following conditions: 24/18° C. day/night temperature under a 16/8 hour light/dark photoperiod. Plants were at head formation (rosette) stage following the first set of growth conditions. 4 days after transfer canopy density was calculated. Next, spray applications of 0, 10, 30 or 100 ppm ACC (n=5) were made using a track sprayer on Sep. 21, 2020. Next, two days following treatment, half of the plants were transferred to a second growth cabinet at 34/30° C. day/night temperature under a 16/8-hour light/dark photoperiod for nine days. These conditions constitute significant heat stress. Plants were then destructively harvested and measured for fresh weight, size, canopy density and A canopy density. A canopy density is calculated by subtracting the canopy density at treatment from the canopy density at harvest.

[3] = 30 ppm ACC spray at Feekes stage 10.4-10.5
[4] = 100 ppm ACC spray at Feekes stage 10.4-10.5
[5] = 100 ppm ACC spray at Feekes stage 5, n = 8
[6] = 100 ppm ACC, vs stress control (no heat)
[7] = 100 ppm ACC, vs treatment control (heat, no ACC)
[8] = 10 ppm ACC spray at rosette stage
[9] = 30 ppm ACC spray at rosette stage
[10] = 100 ppm ACC spray at rosette stage

## NC1(C(=O)O)CC1 [ACC, 1-amino-1-cyclopropanecarboxylic acid]
Apogee wheat [1]; [3]
  Grain Weight: 3.1 grams
  Harvest Index: 0.32
  Spike Weight: 5.39 grams
  Total Spike Number: 6.25
  Yield per Spike: 0.5 grams
  Δ Spike Number: 1.75
Apogee wheat [1]; [4]
  Grain Weight: 3.37 grams
  Harvest Index: 0.34
  Spike Weight: 5.69 grams
  Total Spike Number: 6.5
  Yield per Spike: 0.53 grams
  Δ Spike Number: 2.13
Apogee wheat [2]; [5]
  % Reproductive Tillers: 89.60%
  Fresh Weight: 9.18 grams
  Total Dry Weight: 2.12 grams
  Total Spike Number: 3.13
  Total Tiller Number: 2.75
  Δ Canopy Density: 1.52
Apogee wheat [2]; [6]
  Fresh Weight, percent increase over stress control: (−18.8%)
  Total Dry Weight, percent increase over stress control: (−16.9%)
  Total Spike Number, percent increase over stress control: (−7.1%)
  Total Tiller Number, percent increase over stress control: (−12.1%)
Apogee wheat [2]; [7]
  % Reproductive Tillers, percent increase over treatment control: [43.4%]
  Fresh Weight, percent increase over treatment control: [19.2%]
  Total Dry Weight, percent increase over treatment control: [7.6%]
  Total Spike Number, percent increase over treatment control: [−3.7%]
  Total Tiller Number, percent increase over treatment control: [37.5%]
  Δ Canopy Density, percent increase over treatment control: [42.1%]
Butterhead lettuce; [8]
  Canopy Density: 15.58
  Fresh Weight: 93.94 grams
  Δ Canopy Density: 5.12
Butterhead lettuce; 10 ppm ACC
  Canopy Density, percent increase over stress control: (−11.5%)
  Fresh Weight, percent increase over stress control: (−8.5%)
  Δ Canopy Density, percent increase over stress control: (−24.9%)
  Canopy Density, percent increase over treatment control: [5.9%]
  Fresh Weight, percent increase over treatment control: [11.6%]
  Δ Canopy Density, percent increase over treatment control: [46.3%]
Butterhead lettuce; [9]
  Canopy Density: 16.65
  Fresh Weight: 115.11 grams
  Δ Canopy Density: 5.08
Butterhead lettuce; 30 ppm ACC
  Canopy Density, percent increase over stress control: (−5.4%)
  Fresh Weight, percent increase over stress control: (12.1%)
  Δ Canopy Density, percent increase over stress control: (−25.5%)
  Canopy Density, percent increase over treatment control: [13.2%]
  Fresh Weight, percent increase over treatment control: [36.8%]
  Δ Canopy Density, percent increase over treatment control: [45.1%]
Butterhead lettuce; [10]
  Canopy Density: 15.80
  Fresh Weight: 97.51 grams
  Δ Canopy Density: 4.11
Butterhead lettuce; 100 ppm ACC
  Canopy Density, percent increase over stress control: (−10.2%)
  Fresh Weight, percent increase over stress control: (−5.1%)
  Δ Canopy Density, percent increase over stress control: (−39.7%)
  Canopy Density, percent increase over treatment control: [7.4%]
  Fresh Weight, percent increase over treatment control: [15.9%]
  Δ Canopy Density, percent increase over treatment control: [17.4%]
